From patent publication US20060281736A1, “Product comprising at least one phosphatase cdc25 inhibitor combined with at least one other anticancer agent” (priority 2003, published 2006)
Values belong to the compound of their own block, whether it stands above or below them.

Experiments:
[1] = test system: HT-29 cell line (human colon cancer cells); assay: Test of cell proliferation of the HT-29 cells (WST1), products individually or in combination; type: cell-based; settings: 120 hours
Protocol: A) Test of Cell Proliferation of the HT-29 Cells
The protocol for the test used to obtain the results shown is described below:
The HT-29 cell line (human colon cancer cells) were acquired from the American Tissue Culture Collection (Rockville, Md., USA).
The HT-29 cells (2000 cells/well) are cultured in 96-well plates. On day 0, these cells are seeded in 90 μl of Dulbecco's modified Eagle medium (Gibco-Brl, Cergy-Pontoise, France) completed with 10% foetal calf serum inactived by heating (Gibco-Brl, Cergy-Pontoise, France), 50000 units/l of penicillin and 50 mg/l streptomycin (Gibco-Brl, Cergy-Pontoise, France), and 2 mM of glutamine (Gibco-Brl, Cergy-Pontoise, France).
The cells were treated simultaneously with concentrations of two products individually or in combination on Day 1 and for 120 hours.
At the end of the of this period (D6), quantification of cell proliferation is evaluated by a colorimetric test based on the cleavage of the tetrazolium salt WST1 by mitochondrial dehydrogenases in living cells leading to the formation of formazan (Boehringer Mannheim, Meylan, France). These tests are carried out at least in duplicate with 4 determinations for each individual product and for each combination tested. This allows determination of the number of living cells at the end of each treatment.

[2] = test system: Mia-PaCa2 (human pancreas cancer cells); assay: Antiproliferative activity on Mia-Paca2 cells (WST1); type: cell-based; settings: MIA PaCa-2, 96 hours treatment, read-out: IC50 on the cell proliferation of Mia-Paca2 lines
Protocol: (§1) ii) Characterization of the Antiproliferative Activity:
(§2) By way of example, the effect of a treatment on two human cell lines Mia-Paca2 and DU145 with the compounds of the examples described previously will be studied. The cell lines DU145 (human prostate cancer cells) and Mia-PaCa2 (human pancreas cancer cells) were acquired from the American Tissue Culture Collection (Rockville, Md., USA). The cells placed in 80 μl of Dulbecco's Modified Eagle's medium (Gibco-Brl, Cergy-Pontoise, France) completed with 10% foetal calf serum inactivated by heating (Gibco-Brl, Cergy-Pontoise, France), 50,000 units/l of penicillin and 50 mg/l of streptomycin (Gibco-Brl, Cergy-Pontoise, France), and 2 mM of glutamine (Gibco-Brl, Cergy-Pontoise, France) were seeded on a 96-well plate on day 0. The cells were treated on day 1 for 96 hours with increasing concentrations of each of the compounds to be tested up to 10 μM. At the end of this period, quantification of cell proliferation is evaluated by a colorimetric test based on the cleavage of the tetrazolium salt WST1 by the mitochondrial dehydrogenases in viable cells leading to the formation of formazan (Boehringer Mannheim, Meylan, France). These tests are carried out in duplicate with 8 determinations per concentration tested. For each compound to be tested, the values included in the linear part of the sigmoid were retained for a linear regression analysis and used to estimate the inhibitory concentration IC50. The products are solubilized in dimethylsulphoxide (DMSO) at 10^−2 M and finally used in culture with 0.1% DMSO.

[3] = test system: DU145 (human prostate cancer cells); assay: Antiproliferative activity on DU145 cells (WST1); type: cell-based; settings: DU-145, 96 hours treatment, read-out: IC50 on the cell proliferation of DU-145 lines
Protocol: as §1
as §2, with “For each compound to be tested, the values included in the linear part of the sigmoid were retained for a linear regression analysis and used to estimate the inhibitory concentration IC50. The products are solubilized in dimethylsulphoxide (DMSO) at 10^−2 M and finally used in culture with 0.1% DMSO.” left out

[4] = In vivo toxicity
[5] = Stability in the form of a powder; type: physicochemical; settings: compound and its salts

Compound: N.N.[Cl][Pt][Cl] [Compound B4, cisplatin]
% of surviving cells ([1]; Combination 4: Compound B4 (10^−5 M) individually): 33%
% of surviving cells ([1]; Combination 28: Compound B4 (10^−5 M) individually): 75%
% of surviving cells ([1]; Combination 35: Compound B4 (10^−5 M) individually): 85%

Compound: 4-(2-bromophenyl)-1-(2-(1-((4-cyano-3-methoxy)phenylmethyl)imidazo-5-yl)-1-oxoethyl)-1,2-dihydro-8-fluoroimidazo[1,2a][1,4]-benzodiazepine [Compound B7]
% of surviving cells ([1]; Combination 7: Compound B7 (10^−5 M) individually): 92%

IC50 [2]: ≤ 10 µM
melting point: 135 °C
Compound: CCc1nc2c(o1)C(=O)C(C)=C(NCCN(C)C)C2=O [Example 55, 5-{[2-(dimethylamino)ethyl]amino}-2-ethyl-6-methyl-1,3-benzoxazole-4,7-dione]

Compound: CO[C@@]12[C@H](COC(N)=O)C3=C(C(=O)C(C)=C(N)C3=O)N1C[C@@H]1N[C@@H]12 [Compound B2, mitomycin C]
% of surviving cells ([1]; Combination 2: Compound B2 (10^−7 M) individually): 49%
% of surviving cells ([1]; Combination 25: Compound B2 (5 × 10^−8 M) individually): 82%
% of surviving cells ([1]; Combination 32: Compound B2 (5 × 10^−8 M) individually): 88%
% of surviving cells ([1]; Combination 33: Compound B2 (5 × 10^−8 M) individually): 88%

Compound: CC[C@@]1(O)CC(=O)OCc2c1cc1n(c2=O)Cc2c-1nc1cc(Cl)c(C)cc1c2CN1CCC(C)CC1.Cl [Compound B13, (+)-9-chloro-5-ethyl-5-hydroxy-10-methyl-12-(4-methylpiperidinomethyl)-4,5,13,15-tetrahydro-1H,3H-oxepino[3′,4′:6,7]indolizino[1,2-c]quinoline-3,15-dione hydrochloride]
% of surviving cells ([1]; Combination 13: Compound B13 (10^−9 M) individually): 91%

Compound: CN(Cc1cnc2nc(N)nc(N)c2n1)c1ccc(C(=O)N[C@@H](CCC(=O)O)C(=O)O)cc1 [Compound B5, methotrexate]
% of surviving cells ([1]; Combination 5: Compound B5 (5 × 10^−8 M) individually): 83%

IC50 [2]: ≤ 10 µM
IC50 [3]: ≤ 10 µM
Compound: CCCNC1=CC(=O)c2sc(C)nc2C1=O [Example 11, 2-methyl-5-(propylamino)-1,3-benzothiazole-4,7-dione]

stability in the form of a powder [5]: particularly stable
Compound: N[C@@H](CSSC[C@H](N)C(=O)N1CCn2cc(-c3ccccc3)nc2[C@@H]1CC1CCCCC1)C(=O)N1CCn2cc(-c3ccccc3)nc2[C@@H]1CC1CCCCC1 [(1R)-1-[({(2R)-2-amino-3-[(8S)-8-(cyclohexylmethyl)-2-phenyl-5,6-dihydroimidazo[1,2-a]pyrazin-7(8H)-yl]-3-oxopropyl}dithio)methyl]-2-[(8)-8-(cyclohexylmethyl)-2-phenyl-5,6-dihydroimidazo[1,2-a]pyrazin-7(8H)-yl]-2-oxoethylamine]
in vivo toxicity data [4]: excellent

Compound: CCc1c2c(nc3ccc(O)cc13)-c1cc3c(c(=O)n1C2)COC(=O)[C@]3(O)CC [Compound B11, SN-38]
% of surviving cells ([1]; Combination 11: Compound B11 (5 × 10^−9 M) individually): 98%
% of surviving cells ([1]; Combination 24: Compound B11 (10^−8 M) individually): 73%
% of surviving cells ([1]; Combination 30: Compound B11 (10^−8 M) individually): 67%
